# Tests used:
# Mus musculus [1] = assay: Activity against Forest virus infection in mice after intraperitoneal administration of 100 mg/kg; format: functional
# Mus musculus [2] = species on record: Mus musculus; assay: Mean survival time of Forest virus infected mice that died; survivors lived through 21 days; format: functional
# Mus musculus [3] = assay: Mean survival time of Forest virus infected mice that died; survivors lived through 21 days after intraperitoneal administration of 100 mg/kg; format: functional
# Mus musculus [4] = species on record: Mus musculus; assay: Activity against Forest virus infection in mice; format: functional
# Rattus norvegicus = assay: Compound at a dose 100 mg/kg was administered to rat and Percent survivors after coronavirus infection in suckling rats.; format: functional
# Mus musculus [5] = assay: Activity against Forest virus infection in mice, ip; format: functional
# Mus musculus [6] = assay: Mean survival time of San Angelo virus infected mice that died; survivors lived through 21 days after intraperitoneal administration of 10 mg/kg; format: functional
# Mus musculus [7] = species on record: Mus musculus; assay: Activity against San Angelo virus infection in mice; format: functional
# Mus musculus [8] = assay: Activity against San Angelo virus infection in mice after intraperitoneal administration of 50 mg/kg; format: functional
# Mus musculus [9] = assay: Mean survival time of Forest virus infected mice that died; survivors lived through 21 days after intraperitoneal administration of 50 mg/kg; format: functional
# Mus musculus [10] = assay: Mean survival time Forest virus infectedof mice that died; survivors lived through 21 days after intraperitoneal administration of 25 mg/kg; format: functional
# Mus musculus [11] = assay: Mean survival time of San Angelo virus infected mice that died; survivors lived through 21 days after intraperitoneal administration of 25 mg/kg; format: functional
# Mus musculus [12] = assay: Activity against Forest virus infection in mice after intraperitoneal administration of 50 mg/kg; format: functional
# Mus musculus [13] = assay: Activity against San Angelo virus infection in mice after intraperitoneal administration of 25 mg/kg; format: functional
# Mus musculus [14] = assay: Mean survival time of San Angelo virus infected mice that died; survivors lived through 21 days after intraperitoneal administration of 50 mg/kg; format: functional
# Mus musculus [15] = assay: Activity against San Angelo virus infection in mice after intraperitoneal administration of 10 mg/kg; format: functional
# Mus musculus [16] = species on record: Mus musculus; assay: Mean survival time of San Angelo virus infected mice that died; survivors lived through 21 days; format: functional
# Mus musculus [17] = species on record: Mus musculus; assay: Mean survival time mice that died; survivors lived through 21 days; format: functional
# Mus musculus [18] = assay: Activity against Forest virus infection in mice after intraperitoneal administration of 25 mg/kg; format: functional
# Mus musculus [19] = assay: Activity against Forest virus infection in mice after intraperitoneal administration of 200 mg/kg; format: functional
# Mus musculus [20] = assay: Mean survival time of Forest virus infected mice that died; survivors lived through 21 days after intraperitoneal administration of 200 mg/kg; format: functional
# Mus musculus [21] = species on record: Mus musculus; assay: Inhibition of […] murine melanoma artificial metastasis in lungs of C57BL/6j mice expressed as average of B16-F10 colonies in lungs from 6 or 7 mice on 17th day (no. of mice = 6); format: functional, Lung
# Mus musculus [22] = assay: Activity against Forest virus infection in mice after oral administration of 200 mg/kg; format: functional
# Mus musculus [23] = species on record: Mus musculus; assay: Inhibition of […] murine melanoma artificial metastasis in lungs of C57BL/6j mice expressed as average of B16-F10 colonies in lungs from 6 or 7 mice on 18-19th days (no. of mice = 7); format: functional, Lung
# Mus musculus [24] = assay: Mean survival time of San Angelo virus infected mice that died; survivors lived through 21 days after intraperitoneal administration of 100 mg/kg; format: functional
# Mus musculus [25] = assay: Mean survival time of Forest virus infected mice that died; survivors lived through 21 days after oral administration of 200 mg/kg; format: functional
# Mus musculus [26] = assay: Activity against San Angelo virus infection in mice after intraperitoneal administration of 100 mg/kg; format: functional
smiles,measurement,setting,value
N#Cc1cn(C2O[C@H](CO)[C@@H](O)[C@H]2O)c2nc(N)nc(O)c12 (some centres undefined),Survivors,Mus musculus [1],50%
same,Mean survival,Mus musculus [2],6 days
same,Mean survival,Mus musculus [3],8.5 days
same,Survivors,Mus musculus [4],8%
Cn1c(=O)n(C2O[C@H](CO)[C@@H](O)[C@H]2O)c2nc(N)nc(O)c21 (some centres undefined),Survivors,Rattus norvegicus,75%
Nc1nc(=O)c2sc(=O)n([C@@H]3O[C@H](CO)[C@@H](O)[C@H]3O)c2[nH]1 [ISATORIBINE],Survivors,Rattus norvegicus,83%
Nc1nc(O)c2cc(Cl)n(C3O[C@H](CO)[C@@H](O)[C@H]3O)c2n1 (some centres undefined),Survivors,Mus musculus [5],8%
same,Mean survival,Mus musculus [6],8 days
same,Survivors,Rattus norvegicus,92%
same,Survivors,Mus musculus [7],18%
same,Survivors,Mus musculus [1],92%
same,Survivors,Mus musculus [8],100%
same,Mean survival,Mus musculus [9],>21 days
same,Mean survival,Mus musculus [10],6 days
same,Mean survival,Mus musculus [2],6.5 days
same,Mean survival,Mus musculus [3],7 days
same,Mean survival,Mus musculus [11],>21 days
same,Survivors,Mus musculus [12],100%
same,Survivors,Mus musculus [13],100%
same,Mean survival,Mus musculus [14],>21 days
same,Survivors,Mus musculus [15],58%
same,Mean survival,Mus musculus [16],7.2 days
same,Mean survival,Mus musculus [17],7 days
same,Survivors,Mus musculus [18],92%
Nc1nc(O)c2c(C(=O)O)cn(C3O[C@H](CO)[C@@H](O)[C@H]3O)c2n1 (some centres undefined),Survivors,Mus musculus [1],8%
same,Mean survival,Mus musculus [2],6.8 days
same,Mean survival,Mus musculus [3],8.1 days
same,Survivors,Mus musculus [19],33%
same,Survivors,Mus musculus [4],17%
same,Mean survival,Mus musculus [20],6 days
Cn1c(=S)n(C2O[C@H](CO)[C@@H](O)[C@H]2O)c2nc(N)nc(O)c21 (some centres undefined),Survivors,Rattus norvegicus,58%
Nc1nc2c(ccn2[C@@H]2O[C@H](CO)[C@@H](O)[C@H]2O)c(=O)[nH]1,Mean,Mus musculus [21],0.14
same,Survivors,Mus musculus [7],33%
same,Survivors,Mus musculus [1],83%
same,Survivors,Mus musculus [22],83%
same,Survivors,Mus musculus [8],100%
same,Mean survival,Mus musculus [9],6 days
same,Mean,Mus musculus [23],0.17
same,Mean survival,Mus musculus [2],7.4 days
same,Mean survival,Mus musculus [3],6.5 days
same,Mean survival,Mus musculus [24],>21 days
same,Mean survival,Mus musculus [11],9 days
same,Survivors,Mus musculus [12],83%
same,Survivors,Mus musculus [13],92%
same,Mean survival,Mus musculus [14],>21 days
same,Mean survival,Mus musculus [25],8 days
same,Survivors,Mus musculus [26],100%
same,Mean survival,Mus musculus [16],7.9 days
same,Survivors,Mus musculus [4],8%

# Source: ChEMBL document CHEMBL1126611, “Modulation of leukocyte genetic expression by novel purine nucleoside analogues. A new approach to antitumor and antiviral agents” (1993)
